Results as given in patent US10899754B2, “Modulators of indoleamine 2,3-dioxygenase” (GLAXOSMITHKLINE INTELLECTUAL PROPERTY DEVELOPMENT LIMITED, priority 2016, dated 2021).

Key:
[1] = target: indoleamine 2, 3-dioxygenase (IDO1) (Homo sapiens, UniProt P14902); assay: IDO1 PBMC RapidFire MS assay (kynurenine detection by mass spectrometry); assay type: cell-based; set-up: to induce the expression of indoleamine 2, 3-dioxygenase (IDO1); host or cells: human PBMC stimulated with IFN-gamma and LPS; settings: human PBMC stimulated with IFN-γ and LPS, 2 days, pIC50, read-out: PBMC PXC50 (converted)
Chain of indoleamine 2, 3-dioxygenase (IDO1) (P14902 whole entry): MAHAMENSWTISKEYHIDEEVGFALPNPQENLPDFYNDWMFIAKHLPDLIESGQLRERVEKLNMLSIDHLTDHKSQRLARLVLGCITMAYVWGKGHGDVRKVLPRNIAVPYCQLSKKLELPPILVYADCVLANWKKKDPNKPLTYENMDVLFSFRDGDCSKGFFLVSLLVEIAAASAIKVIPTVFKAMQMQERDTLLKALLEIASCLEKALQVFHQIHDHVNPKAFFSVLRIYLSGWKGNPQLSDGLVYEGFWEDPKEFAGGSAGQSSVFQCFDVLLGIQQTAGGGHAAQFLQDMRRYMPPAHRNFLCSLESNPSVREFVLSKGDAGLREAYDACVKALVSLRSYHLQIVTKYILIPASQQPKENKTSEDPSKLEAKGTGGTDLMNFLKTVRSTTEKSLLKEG
Experimental: IDO1 PBMC RapidFire MS Assay
(§1) Compounds of the present invention were tested via high-throughput cellular assays utilizing detection of kynurenine via mass spectrometry and cytotoxicity as end-points. For the mass spectrometry and cytotoxicity assays, human peripheral blood mononuclear cells (PBMC) (PB003F; AllCells®, Alameda, Calif.) were stimulated with human interferon-γ (IFN-γ) (Sigma-Aldrich Corporation, St. Louis, Mo.) and lipopolysaccharide from Salmonella minnesota (LPS) (Invivogen, San Diego, Calif.) to induce the expression of indoleamine 2, 3-dioxygenase (IDO1). Compounds with IDO1 inhibitory properties decreased the amount of kynurenine produced by the cells via the tryptophan catabolic pathway. Cellular toxicity due to the effect of compound treatment was measured using CellTiter-Glo® reagent (CTG) (Promega Corporation, Madison, Wis.), which is based on luminescent detection of ATP, an indicator of metabolically active cells.
(§2) In preparation for the assays, test compounds were serially diluted 3-fold in DMSO from a typical top concentration of 1 mM or 5 mM and plated at 0.5 μL in 384-well, polystyrene, clear bottom, tissue culture treated plates with lids (Greiner Bio-One, Kremsmünster, Austria) to generate 11-point dose response curves. Low control wells (0% kynurenine or 100% cytotoxicity) contained either 0.5 μL of DMSO in the presence of unstimulated (−IFN-γ/−LPS) PBMCs for the mass spectrometry assay or 0.5 μL of DMSO in the absence of cells for the cytotoxicity assay, and high control wells (100% kynurenine or 0% cytotoxicity) contained 0.5 μL of DMSO in the presence of stimulated (+IFN-γ/+LPS) PBMCs for both the mass spectrometry and cytotoxicity assays.
(§3) Frozen stocks of PBMCs were washed and recovered in RPMI 1640 medium (Thermo Fisher Scientific, Inc., Waltham, Mass.) supplemented with 10% v/v heat-inactivated fetal bovine serum (FBS) (Thermo Fisher Scientific, Inc., Waltham, Mass.), and 1× penicillin-streptomycin antibiotic solution (Thermo Fisher Scientific, Inc., Waltham, Mass.). The cells were diluted to 1,000,000 cells/mL in the supplemented RPMI 1640 medium. 50 μL of either the cell suspension, for the mass spectrometry assay, or medium alone, for the cytotoxicity assay, were added to the low control wells, on the previously prepared 384-well compound plates, resulting in 50,000 cells/well or 0 cells/well respectively. IFN-γ and LPS were added to the remaining cell suspension at final concentrations of 100 ng/ml and 50 ng/ml respectively, and 50 μL of the stimulated cells were added to all remaining wells on the 384-well compound plates. The plates, with lids, were then placed in a 37° C., 5% CO2 humidified incubator for 2 days.
(§4) Following incubation, the 384-well plates were removed from the incubator and allowed to equilibrate to room temperature for 30 minutes. For the cytotoxicity assay, CellTiter-Glo® was prepared according to the manufacturer's instructions, and 40 μL were added to each plate well. After a twenty minute incubation at room temperature, luminescence was read on an EnVision® Multilabel Reader (PerkinElmer Inc., Waltham, Mass.). For the mass spectrometry assay, 10 μL of supernatant from each well of the compound-treated plates were added to 40 μL of acetonitrile, containing 10 μM of an internal standard for normalization, in 384-well, polypropylene, V-bottom plates (Greiner Bio-One, Kremsmünster, Austria) to extract the organic analytes. Following centrifugation at 2000 rpm for 10 minutes, 10 μL from each well of the acetonitrile extraction plates were added to 90 μL of sterile, distilled H2O in 384-well, polypropylene, V-bottom plates for analysis of kynurenine and the internal standard on the RapidFire 300 (Agilent Technologies, Santa Clara, Calif.) and 4000 QTRAP MS (SCIEX, Framingham, Mass.). MS data were integrated using Agilent Technologies' RapidFire Integrator software, and data were normalized for analysis as a ratio of kynurenine to the internal standard. […]

[2] = test system: human peripheral blood mononuclear cells (PBMC); assay: PBMC cytotoxicity assay (CellTiter-Glo); assay type: cell-based; settings: 2 days, pCC50
Experimental: as §1, §2, §3, §4

Row | Compound | IC50 [1] [nM] | PBMC TOX PXC50 [2]
1 | CC(C)CN(c1ccc([C@H](C)CC(=O)O)cc1N(c1cnc(C(=O)O)nc1)c1cnc(C(=O)O)nc1)C1CCOCC1 [example 265, 5-({5-[(2R)-1-carboxypropan-2-yl]-2-[(2-methylpropyl)(oxan-4-yl)amino]phenyl}(2-carboxypyrimidin-5-yl)amino)pyrimidine-2-carboxylic acid] | > 10000 | <5
2 | COCc1ccc(Nc2cc([C@H](C)CC(=O)O)ccc2N(CC(C)C)[C@H]2CC[C@H](OC)CC2)nc1 (racemic) [example 247, (3RS)-3-(3-{[5-(methoxymethyl)pyridin-2-yl]amino}-4-[(2-methylpropyl)[(1rs&,4rs&)-4-methoxycyclohexyl]ami-no]phenyl)butanoic acid] | 31.6 | <5
3 | CC(C)CN(CCCCCN=[N+]=[N-])c1ccc([C@H](C)CC(=O)O)cc1Nc1nc(C(F)(F)F)ns1 [Example 94, (R)-3-(4-((5-azidopentyl) (isobutyl)amino)-3-((3-(trifluoromethyl)-1,2,4-thiadiazol-5-yl)amino)phenyl)butanoic Acid] | 1.26 | <4.3
4 | CC(C)CN(CC(C)C)c1ccc([C@H](C)CC(=O)O)cc1Nc1ccc(=O)[nH]c1 [example 217, (3R)-3-{4-[bis(2-methylpropyl)amino]-3-[(6-oxo-1,6-dihydropyridin-3-yl)amino]phenyl}butanoic acid] | 3980 | <5
5 | CC(C)CN(c1ccc([C@H](C)CC(=O)O)cc1Nc1n[nH]c(C(F)(F)F)n1)C1CCOCC1 [Example 32, (R)-3-(4-(Isobutyl(tetrahydro-2H-pyran-4-yl)amino)-3-((5-(trifluoromethyl)-1H-1,2,4-triazol-3-yl)amino)phenyl)butanoic Acid] | 10 | <5
6 | CC(C)CN(CCCCCN)c1ccc([C@H](C)CC(=O)O)cc1Nc1nc(C(F)(F)F)ns1 [example 229, (3R)-3-{4-[(5-aminopentyl)(2-methylpropyl)amino]-3-{[3-(trifluoromethyl)-1,2,4-thiadiazol-5-yl]amino}phenyl}butanoic acid] | 50.1 | <5
7 | CC(C)CN(CC(C)C)c1ccc([C@H](C)CC(=O)O)cc1Nc1ccc(=O)n(C)c1 [example 218, (3R)-3-{4-[bis(2-methylpropyl)amino]-3-[(1-methyl-6-oxo-1,6-dihydropyridin-3-yl)amino]phenyl}butanoic acid] | 2000 | <5
8 | CONC(=O)C[C@@H](C)c1ccc(N(CC(C)C)C2CCOCC2)c(Nc2nc(C(F)(F)F)ns2)c1 [Example 106, (R)-3-(4-(Isobutyl(tetrahydro-2H-pyran-4-yl)amino)-3-((3-(trifluoromethyl)-1,2,4-thiadiazol-5-yl)amino)phenyl)-N-methoxybutanamide] | 6.31 | <5
9 | CC(C)CN(c1ccc([C@H](C)CC(=O)O)cc1Nc1ccc(Cl)cn1)C1CCOCC1 [Example 8, (R)-3-(3-((5-chloropyridin-2-yl)amino)-4-(isobutyl(tetrahydro-2H-pyran-4-yl)amino)phenyl)butanoic Acid] | 0.794 | <5
10 | CC(C)CN(c1ccc([C@H](C)CC(=O)O)cc1Nc1nc(C(F)(F)F)ns1)C1CCN(C(=O)OC(C)(C)C)CC1 [Example 69, (R)-3-(4-((1-(tert-butoxycarbonyl)piperidin-4-yl) (isobutyl)amino)-3-((3-(trifluoromethyl)-1,2,4-thiadiazol-5-yl)amino)phenyl)butanoic Acid] | 2.51 | <5
11 | CC(C)CN(c1ccc([C@H](C)CC(=O)O)cc1Nc1nc(C(F)(F)F)c[nH]1)C1CCOCC1 [Example 114, (R)-3-(4-(isobutyl(tetrahydro-2H-pyran-4-yl)amino)-3-((4-(trifluoromethyl)-1H-imidazol-2-yl)amino)phenyl)butanoic Acid] | 15.8 | <5
12 | CC(C)CN(CC(C)C)c1ccc([C@H](C)CC(=O)O)cc1Nc1n[nH]c(C(F)(F)F)n1 [Example 86, (R)-3-(4-(diisobutylamino)-3-((5-(trifluoromethyI)-1H-1,2,4-triazol-3-yl)amino)phenyl)butanoic Acid] | 3.98 | <5

More lines, main results first:

Row | IC50 [1] [nM] | Compound | PBMC TOX PXC50 [2]
13 | 7.94 | CC(C)CN(c1ccc([C@H](C)CC(=O)O)cc1Nc1n[nH]c(C#N)n1)C1CCCCC1 [Example 83, (R)-3-(3-((5-cyano-1H-1,2,4-triazol-3-yl)amino)-4-(cyclohexyl(isobutyl)amino)phenyl)butanoic Acid] | <5
14 | 1 | CO[C@H]1CC[C@@H](N(CC(C)C)c2ccc([C@H](C)CC(=O)O)cc2Nc2nc(Cl)ns2)CC1 [Example 48, (R)-3-(3-((3-chloro-1,2,4-thiadiazol-5-yl)amino)-4-(isobutyl((1s,4S)-4-methoxycyclohexyl)amino)phenyl)butanoic Acid] | <5
15 | 1.58 | CC(C)CN(c1ccc(C(C)CC(=O)O)cc1Nc1nnc(C(N)=O)s1)C1CCCCC1 (stereo not drawn) [Example 80, 3-(3-((5-carbamoyl-1,3,4-thiadiazol-2-yl)amino)-4-(cyclohexyl(isobutyl)amino)phenyl)butanoic] | <5
16 | 3.16 | CC(C)CN(c1ccc([C@H](C)CC(=O)O)cc1Nc1n[nH]c(C(F)(F)F)n1)C1CCCCC1 [Example 78, (R)-3-(4-(cyclohexyl(isobutyl)amino)-3-((5-(trifluoromethyl)-1H-1,2,4-triazol-3-yl)amino)phenyl)butanoic Acid] | <5
17 | 3.16 | CC(C)CN(c1ccc([C@H](C)CC(=O)O)cc1Nc1nc(Cl)ns1)C1CCOCC1 [Example 25, (R)-3-(3-((3-chloro-1,2,4-thiadiazol-5-yl)amino)-4-(isobutyl(tetrahydro-2H-pyran-4-yl)amino)phenyl)butanoic Acid] | <5
18 | 31.6 | CNC(=O)c1nnc(Nc2cc([C@H](C)CC(=O)O)ccc2N(CC(C)C)C2CCOCC2)s1 [example 257, (3R)-3-(3-{[5-(methylcarbamoyl)-1,3,4-thiadiazol-2-yl]amino}-4-[(2-methylpropyl)(oxan-4-yl)amino]phenyl)butanoic acid] | <5
19 | 25.1 | CC(C)CN(c1ccc([C@H](C)CC(=O)O)cc1Nc1ncc(Cl)cn1)C1CCOCC1 [example 231, (3R)-3-{3-[(5-chloropyrimidin-2-yl)amino]-4-[(2-methylpropyl)(oxan-4-yl)amino]phenyl}butanoic acid] | <5
20 | 6.31 | COC(=O)c1c[nH]c(Nc2cc([C@H](C)CC(=O)O)ccc2N(CC(C)C)C2CCOCC2)n1 [Example 29, (R)-3-(4-(isobutyl(tetrahydro-2H-pyran-4-yl)amino)-3-((4-(methoxycarbonyl)-1H-imidazol-2-yl)amino)phenyl)butanoic acid] | <5
21 | 25.1 | CC(C)CN(c1ccc([C@H](C)CC(=O)O)cc1Nc1ccc(C(N)=O)nc1)C1CCOCC1 [example 239, (3R)-3-{3-[(6-carbamoylpyridin-3-yl)amino]-4-[(2-methylpropyl)(oxan-4-yl)amino]phenyl}butanoic acid] | <5
